Like-named read-outs stand apart in the source and are kept apart here.
What was measured:
kOR (OPRK1) = kOR (OPRK1) (Homo sapiens (Human), UniProt P41145); assay: KOR β-Arrestin antagonist assay (Tango OPRK1-bla U2OS cells); type: cell-based
Text: KOR β-Arrestin Agonist and Antagonist assays were preformed using the Tango™ OPRK1-bla U2OS cells from Invitrogen and purchased from ThermoFisher, catalog number K1576.

human mOR = human mOR (Homo sapiens (Human), UniProt P35372); assay: cell-based
human dOR = human dOR (Homo sapiens (Human), UniProt P41143); assay: cell-based; settings: dOR cAMP Agonist Assay EC50, CHO Tag-lite human dOR stable cell line; forskolin
[1] = CHO Tag-lite human mOR stable cell line, forskolin 4 μM and DAMGO at EC90, read-out: mOR cAMP Antagonist Assay IC50

Chain of human dOR (P41143 whole entry): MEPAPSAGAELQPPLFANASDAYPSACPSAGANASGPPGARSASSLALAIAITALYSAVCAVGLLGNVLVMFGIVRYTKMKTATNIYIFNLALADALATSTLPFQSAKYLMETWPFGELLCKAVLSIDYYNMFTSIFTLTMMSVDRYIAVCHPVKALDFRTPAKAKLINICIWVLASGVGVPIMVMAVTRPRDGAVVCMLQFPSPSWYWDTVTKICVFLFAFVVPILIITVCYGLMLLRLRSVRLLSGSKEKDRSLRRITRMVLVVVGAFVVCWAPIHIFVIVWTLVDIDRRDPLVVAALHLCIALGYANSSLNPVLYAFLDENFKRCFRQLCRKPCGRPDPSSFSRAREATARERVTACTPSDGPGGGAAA
Chain of kOR (OPRK1) (P41145 whole entry): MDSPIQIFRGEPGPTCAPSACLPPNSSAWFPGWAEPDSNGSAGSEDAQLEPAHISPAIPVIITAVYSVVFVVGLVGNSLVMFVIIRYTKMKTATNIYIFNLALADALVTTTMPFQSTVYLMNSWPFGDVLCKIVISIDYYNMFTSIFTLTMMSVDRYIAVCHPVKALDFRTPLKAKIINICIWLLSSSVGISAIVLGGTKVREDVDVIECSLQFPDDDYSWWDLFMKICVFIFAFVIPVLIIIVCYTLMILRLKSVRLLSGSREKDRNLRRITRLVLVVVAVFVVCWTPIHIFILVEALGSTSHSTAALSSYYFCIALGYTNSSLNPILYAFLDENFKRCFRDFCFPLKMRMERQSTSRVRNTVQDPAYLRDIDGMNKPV
Chain of human mOR (P35372 whole entry): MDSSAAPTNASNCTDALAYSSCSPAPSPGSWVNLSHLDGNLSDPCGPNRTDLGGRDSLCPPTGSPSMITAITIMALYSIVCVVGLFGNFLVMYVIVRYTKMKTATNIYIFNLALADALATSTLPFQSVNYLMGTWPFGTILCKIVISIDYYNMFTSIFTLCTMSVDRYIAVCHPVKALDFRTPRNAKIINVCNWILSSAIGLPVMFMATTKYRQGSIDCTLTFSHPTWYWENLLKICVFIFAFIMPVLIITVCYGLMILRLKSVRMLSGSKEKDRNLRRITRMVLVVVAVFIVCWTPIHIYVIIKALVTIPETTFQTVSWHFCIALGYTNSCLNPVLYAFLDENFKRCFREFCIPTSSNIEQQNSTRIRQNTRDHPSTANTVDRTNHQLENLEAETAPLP

Compound | IC50 (kOR (OPRK1)) [nM] | IC50 (human mOR; [1]) [nM] | EC50 (human dOR) [nM] | IC50 (human mOR) [nM]
Cc1cc(O)cc(C)c1C[C@@H](CNC(=O)C[C@H](c1ccccc1)C1CC1)N(C)C [Compound 251, (S)-3-cyclopropyl-N-((S)-2-(dimethylamino)-3-(4-hydroxy-2,6-dimethylphenyl)propyl)-3-phenylpropanamide] | < 300 | < 300 | > 3000 | –
CN(C)[C@H](CNC(=O)C[C@@H](c1ccccc1)C1CC1)Cc1ccc(O)cc1 [Compound 318, (R)-3-cyclopropyl-N-((S)-2-(dimethylamino)-3-(4-hydroxyphenyl)propyl)-3-phenylpropanamide] | < 300 | – | < 300 | < 300
CN(C)[C@H](CNC(=O)C[C@H](c1ccccc1)C1CC1)Cc1ccc(O)cc1 [Compound 319, (S)-3-cyclopropyl-N-((S)-2-(dimethylamino)-3-(4-hydroxyphenyl)propyl)-3-phenylpropanamide] | < 300 | > 3000 | < 300 | –

Reference: US11634396B2 (priority 2021, dated 2023)
